According to paper PMC11577813, “Eurasian spruce bark beetle detects lanierone using a highly expressed specialist odorant receptor, present in several functional sensillum types” (BMC Biology, 2024):

Target: T1, ItypOR36 (with ItypOrco) (Ips typographus, UniProt A0AAU6S471)
T1 construct: gene OR36; heteromeric OR/Orco ligand-gated ion channel; GenBank id is for ItypOR36; with Odorant receptor coreceptor
T1 sequence (A0AAU6S471 1-390): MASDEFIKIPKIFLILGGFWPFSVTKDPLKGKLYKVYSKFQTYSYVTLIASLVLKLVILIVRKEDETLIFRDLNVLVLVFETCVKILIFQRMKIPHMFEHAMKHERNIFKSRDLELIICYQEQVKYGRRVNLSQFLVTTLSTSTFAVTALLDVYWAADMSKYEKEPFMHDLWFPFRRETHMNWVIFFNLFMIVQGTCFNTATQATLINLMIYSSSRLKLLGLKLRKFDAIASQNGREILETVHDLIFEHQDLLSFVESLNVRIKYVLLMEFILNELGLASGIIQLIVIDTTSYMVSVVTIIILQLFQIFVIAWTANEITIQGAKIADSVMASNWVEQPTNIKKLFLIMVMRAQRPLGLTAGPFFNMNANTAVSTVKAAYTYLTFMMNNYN
Experiment: Fluo4-AM calcium fluorescence in HEK293 cells, dose-response
Format: cell-based
Conditions: agonist; co-expressed ItypOrco; doxycycline-induced; DPBS with 1 mM probenecid, pH 7.1

- EC50: 790 nM
Compound: CC1=CC(C)(C)C=C(O)C1=O [lanierone, 2-hydroxy-4,4,6-trimethyl-2,5-cyclohexadien-l-one]
